This is an account of results in a melting point compilation (Tetko et al.).

A word on the melting point: it is the temperature of the solid-liquid transition. In turn, `Nc1cccc(OCC(F)(F)F)c1` returned a melting point of 34 to 36 °C.

In the case of `CC(C)(C)OC(=O)NCC1CCCCC1N` (configuration not stated), the melting point lay within 61 to 63 °C.

As for `Clc1ccc(-c2cc3ncnc(Cl)c3s2)cc1`, the melting point lay in the range of 188 to 190 °C.

`CC(C)Oc1ccc(-c2nc(C(=O)O)cs2)cc1`: the melting point was 203 to 205 °C.

For the compound `CNc1nc(-c2ccccc2[N+](=O)[O-])cs1`, the melting point lay in the range of 139 to 141 °C.

`O=C(O)c1occc1COc1ccccc1` registered a melting point of 129 to 131 °C.

Consider `Fc1cccc(Cn2cc(Br)cn2)c1F`, for which the melting point is 53 to 55 °C.

`Cc1ccc(CNC(=O)C2CCNCC2)cc1` registered a melting point of 157 to 159 °C.

With `Clc1cc(SCc2ccccc2)ncn1`, the melting point was 71 to 73 °C.

For `N#CCC(=O)c1cccc2c1OCCO2`, the melting point is 99 to 101 °C.

The compound `CCOC(=O)c1cccnc1S(N)(=O)=O` yielded a melting point of 92 to 94 °C.

`CCOC(=O)c1cc(Br)cc(S(N)(=O)=O)c1` showed a melting point of 119 to 121 °C.

Regarding `COc1cc(C=O)cc(O)c1O`, the melting point was in the range of 131 to 134 °C.

For `CCOC(=O)c1ncsc1NC`, the melting point was in the range of 92 to 94 °C.

Consider `Cc1cccc(Cc2cnc(N)s2)c1`, for which the melting point lay in the range of 100 to 102 °C.

With `Cc1ccc(Oc2ccc3[nH]cccc-3c2=N)c(Br)c1`, the melting point fell in the range of 259 to 261 °C.

`Clc1nccn2cnnc12` registered a melting point of 195 to 197 °C.

Consider `Cc1ccc(Br)cc1N1CCCS1(=O)=O`, for which the melting point was 144 to 146 °C.

`COC(=O)CCCCCNC(=O)c1ccsc1` returned a melting point of 77 to 79 °C.

In turn, `NCc1cn(-c2ccccc2)nc1-c1ccccc1` gave a melting point of 61 to 63 °C.

`Cc1ccc(C(=O)c2cccc(S(C)(=O)=O)c2)c(C)c1` returned a melting point of 83 to 85 °C.

With `CC(C)c1ccc(/C=C(/C(=O)O)c2cccs2)cc1`, the melting point is 250 to 252 °C.

The compound `Nc1nc(-c2ccccc2C(F)(F)F)cs1` displayed a melting point of 115 to 117 °C.

Consider `CC(=O)c1ccc(N(C)C)cc1O`, for which the melting point was 120 to 122 °C.

Compound `CC(Cl)C(=O)NCc1ccccc1` (configuration not stated) gave a melting point of 75 to 77 °C.

Take `O=C(O)C=Cc1ccc(Cl)nc1`: the melting point was in the range of 209 to 211 °C.

As to `COCCNc1ccc([N+](=O)[O-])cc1C(=O)O`, the melting point is 204 to 206 °C.

Compound `N#Cc1cc(C#N)c(S)nc1N` returned a melting point of 280 to 282 °C.

On to `N#CCC(=O)NC1CCCCC1`, for which the melting point lay within 132 to 134 °C.

Compound `CCCNC(=O)C1CNc2ccccc2O1` (configuration not stated) gave a melting point of 129 to 131 °C.

Compound `O=C(O)C1CCN(c2cccc(Cl)c2)C1=O` (configuration not stated) came in with a melting point of 113 to 115 °C.

For `COc1ccc(C(=O)CO)cc1Cl`, the melting point is 136 to 138 °C.

`CC(CC(=O)O)c1ccc(Br)cc1` (configuration not stated) registered a melting point of 101 to 103 °C.

Compound `Cc1cccc(C(=O)O)c1-n1cccc1` had a melting point of 127 to 129 °C.

`N#Cc1ccc(C(F)(F)F)nc1Cl` returned a melting point of 38 to 40 °C.

As for `O=C(Nc1ccc(O)cc1)c1ccc(Cl)cc1`, the melting point was 246 to 248 °C.

For the compound `CC(Cl)C(=O)Nc1ccc(F)c([N+](=O)[O-])c1` (configuration not stated), the melting point is 96 to 98 °C.

`Nc1nc(Cl)ccc1[N+](=O)[O-]` had a melting point of 188 to 193 °C.

Regarding `O=C(O)c1cn(-c2ccccc2)nc1-c1ccc(Cl)s1`, the melting point lay in the range of 209 to 211 °C.

Take `ON=Cc1ccccc1OCc1cn2ccccc2n1`: the melting point was in the range of 197 to 199 °C.

As to `CC(C)Cn1cnc2c1c(=O)[nH]c(=O)n2CC(C)C`, the melting point was in the range of 158 to 160 °C.

Take `O=S(=O)(Cl)c1ccc(Cl)c2ncccc12`: the melting point was in the range of 111 to 113 °C.

`O=c1[nH]c(CO)nc2ccccc12` yielded a melting point of 221 to 223 °C.

In turn, `COC(=O)c1nccc(Cl)c1F` returned a melting point of 49 to 51 °C.

In turn, `Nc1cccc(N2CCCC2=O)c1` returned a melting point of 106 to 108 °C.

On to `CC(C(=O)O)C1CCOCC1` (configuration not stated), for which the melting point fell in the range of 39 to 41 °C.

Consider `Cn1c(CO)nc2cc(C(F)(F)F)ccc21`, for which the melting point is 170 to 172 °C.

`Clc1ccc2c(c1)NCCS2` displayed a melting point of 110 to 112 °C.

For the compound `O=C(O)c1cn(Cc2cccnc2)nn1`, the melting point is 206 to 208 °C.

In the case of `O=S1(=O)CC(S(=O)(=O)Cl)c2ccccc21` (configuration not stated), the melting point was 144 to 146 °C.

The compound `CCc1ccc(Nc2nnc(SCC(=O)O)s2)cc1` registered a melting point of 250 to 252 °C.

`O=C(O)Cc1ccc(Cl)cc1Br`: the melting point lay within 126 to 128 °C.

`COc1ccc(N(C)S(=O)(=O)c2cccc(C(=O)O)c2)cc1` returned a melting point of 172 to 174 °C.

`O=C(O)CCCCNC(=O)OCc1ccccc1` returned a melting point of 104 to 106 °C.

`CC(C)c1noc2nc(-c3ccco3)cc(C(=O)O)c12`: the melting point fell in the range of 224 to 226 °C.

The compound `CCc1c(N)cnn1C` displayed a melting point of 49 to 51 °C.

With `CN1CC(=O)N(CC(=O)Nc2ccccc2)C1=O`, the melting point is 279 to 281 °C.

`NC(=O)CC1CCCCC1` displayed a melting point of 165 to 167 °C.

Compound `COc1nc(C)cc(C)c1C#N` gave a melting point of 96 to 98 °C.

In turn, `Nc1nncc(-c2ccc(Cl)s2)n1` displayed a melting point of 259 to 261 °C.

`Cc1cc(NCc2ccco2)ncn1` yielded a melting point of 95 to 97 °C.

For `Cc1cc(C)c(C(=O)O)cc1N`, the melting point fell in the range of 203 to 205 °C.

In turn, `Fc1ccc2c(Cl)ncnc2c1` returned a melting point of 90 to 92 °C.

`O=S1(=O)C=CC(N=C=S)C1` (configuration not stated) yielded a melting point of 61 to 63 °C.

`Sc1nnnn1-c1ccc2c(c1)OCCO2` came in with a melting point of 143 to 145 °C.

Regarding `Cc1cc(C(=O)O)c2c(C)noc2n1`, the melting point was 233 to 235 °C.

With `CC(=O)c1ccoc1`, the melting point lay in the range of 52 to 54 °C.

As to `O=C(CNC1CC1)NC1CC1`, the melting point was 47 to 49 °C.

In turn, `O=C1CSCc2ccccc21` displayed a melting point of 56 to 58 °C.

In turn, `Cc1ccc2c(c1)c(=O)n(C)c1nnc(CCl)n21` registered a melting point of 203 to 205 °C.

The compound `COc1ccc(-c2csc3ncnc(Cl)c23)cc1` returned a melting point of 163 to 167 °C.

For the compound `COC(=O)c1cn(C)c(-c2ccc(N)cc2)c1C(=O)OC`, the melting point lay within 181 to 183 °C.

Take `CC(C)c1cnc(S)n1C(C)C`: the melting point was in the range of 177 to 179 °C.

Compound `CCOC(=O)c1cc(N2CCNC(=O)C2)ccc1N` yielded a melting point of 126 to 128 °C.

For `Cc1ccc(C(=O)NC2CC2)cc1N`, the melting point was 114 to 116 °C.

The compound `O=C(O)C1SCCS1` registered a melting point of 84 to 86 °C.

In the case of `CC(C)(C)Cc1noc2nc(C3CC3)cc(C(=O)O)c12`, the melting point lay within 164 to 166 °C.

In turn, `COc1ccc(Br)cc1CN1C(=O)CNC1=O` had a melting point of 183 to 185 °C.

As to `O=C1C=CC(=O)N1CCCN1CCOCC1`, the melting point fell in the range of 39 to 41 °C.

`N#Cc1cccc(CS(=O)(=O)NCC(=O)O)c1`: the melting point lay within 158 to 160 °C.

Regarding `COc1ccccc1Nc1nc2sc(C(=O)O)cc2s1`, the melting point was in the range of 235 to 237 °C.

In turn, `O=C(O)c1c(C(F)(F)F)n[nH]c1C(F)(F)F` gave a melting point of 255 to 257 °C.

In turn, `CC(C1CC1)n1ncc2c(C(=O)O)cc(C3CC3)nc21` (configuration not stated) came in with a melting point of 148 to 150 °C.

In turn, `O=C(O)C1CC(=O)N(c2ccc3c(c2)Cc2ccccc2-3)C1` (configuration not stated) showed a melting point of 254 to 256 °C.

`COc1ccc(C)cc1/C=C/C(=O)O` showed a melting point of 141 to 143 °C.

`Cn1c(CC(N)=NO)nc2ccccc21` had a melting point of 240 to 242 °C.

In the case of `Cc1ccc(-c2nc(C=O)co2)cc1`, the melting point is 92 to 94 °C.

As for `O=C(O)c1ccccc1SCc1ccc(Br)cc1`, the melting point was in the range of 233 to 235 °C.

The compound `Fc1cc2ncnc(Cl)c2cc1F` returned a melting point of 89 to 91 °C.

Consider `Cc1cc(Cl)c2cc(F)c(F)c(F)c2n1`, for which the melting point is 73 to 75 °C.

With `O=C1CCSc2cc(F)c(F)cc21`, the melting point fell in the range of 93 to 95 °C.

In turn, `CCOc1cc(C(=O)O)ccc1OCc1ccncc1` yielded a melting point of 238 to 240 °C.

In turn, `CC(C)(C)NC(=O)CN1CCN(CC(N)=S)CC1` displayed a melting point of 148 to 152 °C.

Take `COc1ccc(C(C)=O)c(OCc2ccccc2)c1`: the melting point lay in the range of 59 to 61 °C.

Compound `C1CCC(NC2=NCCCS2)CC1` gave a melting point of 112 to 114 °C.

Consider `CC(C)C(O)Cc1ccccc1Br` (configuration not stated), for which the melting point lay in the range of 73 to 75 °C.

As to `CNS(=O)(=O)Cc1ccc(CN)cc1`, the melting point was 140 to 142 °C.

Turning to `Nc1ccc(Oc2ccc(S(N)(=O)=O)cc2)cc1`, the melting point was 196 to 198 °C.

As for `O=C(O)CCCNS(=O)(=O)c1ccc(Cl)c(Cl)c1`, the melting point was 123 to 125 °C.

`Cc1ccc(C)c(-n2ncc(N)c2C)c1` gave a melting point of 62 to 64 °C.

Turning to `CS(=O)(=O)c1cc(C(=O)O)ccc1Br`, the melting point was 236 to 238 °C.

In the case of `CC(O)C(NS(=O)(=O)c1ccc(Cl)cc1)C(=O)O` (configuration not stated), the melting point was 179 to 181 °C.

Turning to `Cn1c(C2CC2)nc2cnccc21`, the melting point was in the range of 100 to 102 °C.

As for `O=C(O)CCc1n[nH]c(=O)[nH]c1=O`, the melting point was in the range of 203 to 205 °C.

Take `CC(C)(C)OC(=O)N1CCc2ncc(N)cc2C1`: the melting point lay within 116 to 118 °C.

The compound `N#CCCCN1CCOCC1` displayed a melting point of 67 to 69 °C.

`Cn1[nH]c(=O)c2c(=O)cc[nH]c21` displayed a melting point of 327 to 329 °C.

With `CN(C)S(=O)(=O)c1ccc(C(=O)O)cc1Br`, the melting point lay in the range of 185 to 187 °C.

Take `CCN(CC)S(=O)(=O)c1ccc(N)cc1`: the melting point lay within 99 to 101 °C.

The compound `Cc1ccnc2[nH]c(CCl)nc12` displayed a melting point of 274 to 276 °C.

Take `NC(=O)C1CNc2ccccc21` (configuration not stated): the melting point was in the range of 150 to 152 °C.

Consider `N#Cc1ccc(S(=O)(=O)Cl)c([N+](=O)[O-])c1`, for which the melting point fell in the range of 119 to 121 °C.

`O=C(O)c1ccc2cccnn12` gave a melting point of 132 to 134 °C.

Turning to `CCCN1CCc2c(sc(N)c2C(N)=O)C1`, the melting point is 139 to 141 °C.

Turning to `COc1cc(C(=O)O)ccc1OC(C)C`, the melting point lay within 140 to 142 °C.

The compound `CN1CCC(=O)Nc2cc(C(=O)O)ccc21` had a melting point of 249 to 251 °C.

`O=Cc1cc(Br)ccc1OCC(=O)O`: the melting point lay in the range of 170 to 172 °C.

Compound `Cc1ccccc1-n1c(C)cc(C=O)c1C` registered a melting point of 71 to 73 °C.

The compound `Cc1ccc(N)cc1S(=O)(=O)NC1CC1` had a melting point of 131 to 133 °C.

For `COc1ccc(Cl)cc1CC(=O)O`, the melting point lay within 131 to 133 °C.

Turning to `C=CCc1cc(OCC)ccc1O`, the melting point fell in the range of 135 to 137 °C.

Compound `CCn1ccnc1C(O)CCc1ccccc1` (configuration not stated) displayed a melting point of 77 to 79 °C.
